Experimental data published in ChEMBL document CHEMBL1201862, “PubChem BioAssay data set” (2004).
Several values for one entry are separate records, joined by “and”; a condition that tells them apart may be missing. Identical values can stand only once.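 In this assay, cells in 96-well plates receive the compound at five concentrations for 48 hours. Endpoints are linearly interpolated between the surrounding concentrations. GI50 = concentration required for 50% inhibition of growth.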 Activity calls are given as the source filed them. Cut-off read from the data, not from the text of the source: active = GI50 up to about 1.1 µM and inactive = higher.

Columns and labels:
Assay in all cases: growth of human tumour cells (NCI), 48 h
A549 = test system: A549
CCRF-CEM = test system: CCRF-CEM
COLO 205 = test system: COLO 205
EKVX = test system: EKVX
HCC 2998 = test system: HCC 2998
HOP-92 = test system: HOP-92
HT-29 = test system: HT-29
NCI-H23 = test system: NCI-H23
NCI-H522 = test system: NCI-H522
RPMI-8226 = test system: RPMI-8226
SN12C = test system: SN12C
U-251 = test system: U-251
UACC-257 = test system: UACC-257
UACC-62 = test system: UACC-62
Malme-3M = test system: Malme-3M
NCI-H226 = test system: NCI-H226
SK-OV-3 = test system: SK-OV-3
A498 = test system: A498

Structure (SMILES)	GI50 (A549)	GI50 (CCRF-CEM)	GI50 (COLO 205)	GI50 (EKVX)	GI50 (HCC 2998)	GI50 (HOP-92)	GI50 (HT-29)	GI50 (NCI-H23)	GI50 (NCI-H522)	GI50 (RPMI-8226)	GI50 (SN12C)	GI50 (U-251)	GI50 (UACC-257)	GI50 (UACC-62)	GI50 (Malme-3M)	GI50 (NCI-H226)	GI50 (SK-OV-3)	GI50 (A498)
CC(C)=Cc1cc(CCC/C(C)=C/Cc2c(O)cc(C)c(C(=O)O)c2O)co1	> 100 µM (inactive)	32.1 µM (inactive)	> 100 µM (inactive)	> 100 µM (inactive)	> 100 µM (inactive)	> 100 µM (inactive)	> 100 µM (inactive)	> 100 µM (inactive)	12.9 µM (inactive)	26.1 µM (inactive)	> 100 µM (inactive)	> 100 µM (inactive)	> 100 µM (inactive)	> 100 µM (inactive)	–	–	–	–
CC(C)=CCN1c2ccccc2[C@@]2(CC=C(C)C)CCN(C)[C@@H]12 [(+)-DEBROMOFLUSTRAMINE B]	36.1 µM (inactive)	34.2 µM (inactive)	13.9 µM (inactive)	21.2 µM (inactive)	13.7 µM (inactive)	32.7 µM (inactive)	19.5 µM (inactive)	40.5 µM (inactive)	18.6 µM (inactive)	21.6 µM (inactive)	27.4 µM (inactive)	18.2 µM (inactive)	> 10 µM (inactive)	15.7 µM (inactive)	17.7 µM (inactive)	44.2 µM (inactive)	24.4 µM (inactive)	–
Cc1ccccc1NC(=O)Cc1csc2[n+]1C(=O)/C(=C/c1ccc([N+](=O)[O-])cc1)S2	32 µM (inactive)	–	36 µM (inactive)	22.7 µM (inactive)	28.1 µM (inactive)	19.5 µM (inactive)	36 µM (inactive)	23.9 µM (inactive)	–	–	43.4 µM (inactive)	29.7 µM (inactive)	37.1 µM (inactive)	–	–	31.2 µM (inactive)	> 100 µM (inactive)	–
O=C(CC(C(=O)c1ccsc1)c1ccsc1)c1ccsc1 (configuration not stated)	68.5 µM (inactive)	43.1 µM (inactive)	> 100 µM (inactive)	75.2 µM (inactive)	> 100 µM (inactive)	–	77.6 µM (inactive)	46.1 µM (inactive)	–	33.5 µM (inactive)	> 100 µM (inactive)	> 100 µM (inactive)	58.2 µM (inactive)	74.8 µM (inactive)	> 100 µM (inactive)	> 100 µM (inactive)	59.4 µM (inactive)	> 100 µM (inactive)
O=C1CCC(=O)N1n1c(Cc2ccccc2)n[nH]c1=O	> 100 µM (inactive)	> 100 µM (inactive)	> 100 µM (inactive)	> 100 µM (inactive)	> 100 µM (inactive)	–	> 100 µM (inactive)	–	> 100 µM (inactive)	> 100 µM (inactive)	> 100 µM (inactive)	> 100 µM (inactive)	> 100 µM (inactive)	> 100 µM (inactive)	> 100 µM (inactive)	> 100 µM (inactive)	> 100 µM (inactive)	> 100 µM (inactive)
CC(=O)OCC1OC(Sc2nc(-c3ccc(C)cc3)c(C#N)c(=O)n2C2OC(COC(C)=O)C(OC(C)=O)C(OC(C)=O)C2OC(C)=O)C(OC(C)=O)C(OC(C)=O)C1OC(C)=O (configuration not stated)	> 100 µM (inactive)	4.83 µM (inactive) and 6.76 µM (inactive)	–	> 100 µM (inactive)	–	–	> 100 µM (inactive)	> 100 µM (inactive)	> 100 µM (inactive)	> 100 µM (inactive)	> 100 µM (inactive)	> 100 µM (inactive)	> 100 µM (inactive)	> 100 µM (inactive)	–	> 100 µM (inactive)	> 100 µM (inactive)	> 100 µM (inactive)
CCCCCCCCCCC(C(=O)O)C1(C(=O)O)CCC(=O)O1 (configuration not stated)	> 100 µM (inactive)	> 100 µM (inactive)	> 100 µM (inactive)	> 100 µM (inactive)	> 100 µM (inactive)	> 100 µM (inactive)	> 100 µM (inactive)	> 100 µM (inactive)	> 100 µM (inactive)	> 100 µM (inactive)	> 100 µM (inactive)	> 100 µM (inactive)	> 100 µM (inactive)	> 100 µM (inactive)	–	> 100 µM (inactive)	> 100 µM (inactive)	–
O=Cc1c(C(=O)O)[nH]c(=O)[nH]c1=O	> 100 µM (inactive)	> 100 µM (inactive)	> 100 µM (inactive)	> 100 µM (inactive)	–	–	> 100 µM (inactive)	> 100 µM (inactive)	58.3 µM (inactive)	> 100 µM (inactive)	> 100 µM (inactive)	> 100 µM (inactive)	> 100 µM (inactive)	> 100 µM (inactive)	> 100 µM (inactive)	> 100 µM (inactive)	> 100 µM (inactive)	> 100 µM (inactive)
CCCCCCCCCCCCCC[S+](C)C	1.68 µM (inactive)	1.23 µM (inactive)	1.62 µM (inactive)	3.01 µM (inactive)	1.66 µM (inactive)	1.18 µM (inactive)	1.56 µM (inactive)	1.5 µM (inactive)	1.75 µM (inactive)	0.601 µM (active)	1.59 µM (inactive)	1.09 µM (active)	2.45 µM (inactive)	2.22 µM (inactive)	–	1.99 µM (inactive)	4.02 µM (inactive)	–
